Source: patent publication US12357645B2, “Drug combination for treatment of gastric cancer” (priority 2023, dated 2025)

Key:
[1] = tested on: patients with Advanced Gastrointestinal Tumors; assay: Phase 1 study of intravenous minnelide prodrug: safety; type: in vivo, human
Description: Intravenous Minnelide Prodrug. Phase 1, Multi-Center, Open-Label, Dose-Escalation, Safety, Pharmacokinetic, and Pharmacodynamic Study of minnelide prodrug given intravenously daily for 21 days followed by 7 days off schedule in patients with Advanced Gastrointestinal Tumors. A second dosing schedule of minnelide prodrug given intravenously QD for 5 days with 2 days off for three weeks followed by a 7-day rest period was also explored during this study.

[2] = tested on: MKN45, MKN28I-N-87; assay: Subcutaneous gastric cancer models, daily intraperitoneal minnelide prodrug; type: in vivo; details: 0.2 mg/kg and 0.4 mg/kg
[3] = tested on: rats; assay: Definitive toxicity studies in rats (intravenous); type: in vivo; details: definitive toxicity study
Procedure: (§1) As clinical development of minnelide prodrug was initiated using an intravenous drug product, IND-enabling toxicology studies were conducted in both rats and dogs using the intravenous route of administration. The results of these studies supported first-in-human clinical trials involving intravenous administration of minnelide prodrug to patients with advanced solid tumors. To support the clinical development of a new solid oral dosage form of minnelide prodrug (capsules), exploratory and definitive toxicity studies were conducted with minnelide prodrug in solution via oral gavage in dogs. Taken together, the results of the intravenous and oral toxicity studies conducted with minnelide prodrug indicate that the target organ profile of minnelide prodrug is consistent in both species (rats and dogs) when administered by either route of administration (intravenous or oral).

[4] = tested on: dogs; assay: Definitive toxicity studies in dogs (intravenous, oral gavage); type: in vivo
Procedure: as §1

[5] = tested on: patients with advanced gastric cancer (AGC); assay: Phase 1 study of minnelide prodrug alone or with paclitaxel in advanced gastric cancer (NCT 05566834): safety, DLT, MTD, adverse events
[6] = Regimen A (PO daily x21 d/28 d), n = 11

CC(C)[C@]12O[C@H]1[C@@H]1O[C@]13[C@]1(O[C@H]1C[C@H]1C4=C(CC[C@@]13C)C(=O)OC4)[C@@H]2OCOP(=O)([O-])[O-].[Na+].[Na+] [minnelide prodrug, disodium; [(1S,2S,4S,5S,7S,8R,9R,11S, 13S)-1-methyl-17-oxo-7-propan-2-yl-3,6,10,16-tetraoxaheptacyclo [11.7.0.0^2,4.0^2,9.0^5,7.0^9,11.0^14,18]icos-14 (18)-en-8-yl]oxymethyl phosphate]
Anemia and thrombocytopenia Grade 3 and 4 (drug related), share of patients [1]: 22% | Serious Adverse Events related to the study drug [1]: six | Serious Adverse Events, number [1]: 28 | TEAE cases considered DLTs [1]: two | other possibly related side effects of any grade (nausea, vomiting, diarrhea, constipation, anorexia, stomatitis, cerebellar toxicity, embolism, dyspnea), share of patients [1]: ≤ 3% | patients with Serious Adverse Events [1]: 17 | patients with at least 1 AE considered related to the study drug [1]: 32 | patients with neutropenic fever and neutropenic infection (drug related) [1]: three | deaths in the study ([1]; 42 patients dosed, after study drug ended, within 30-day follow-up, not related to study drug): 6 | patients who discontinued study drug due to TEAEs ([1]; all Grade 3): 3 | resolution of grade 3 and 4 neutropenia after not receiving treatment ([1]; all dose levels): within a couple of days | tumor weights and volumes [2]: markedly decreased tumor weights and volumes | histopathology of reproductive tract tissues, males and females [3]: adverse, largely irreversible histopathological effects | histopathology of reproductive tract tissues, males and females ([4]; definitive toxicity studies, dogs): adverse, largely irreversible histopathological effects | histopathology of the gastrointestinal tract ([4]; oral gavage for up to 28 consecutive days): No adverse histopathological effects | Grade 5 AEs caused by gastric cancer progression, number ([5]; Regimen A): 3 | minnelide prodrug-related AE abdominal pain ([5]; Regimen A): 27.3% | minnelide prodrug-related AE anorexia ([5]; Regimen A): 54.5% | minnelide prodrug-related AE nausea ([5]; Regimen A): 45.5% | Minnelide-related AE Abdominal pain, Any [5, 6]: 3 (27.3) n (%) | Minnelide-related AE Abdominal pain, ≥Gr 3 [5, 6]: 2 (18.2) n (%) | Minnelide-related AE Anorexia, Any [5, 6]: 6 (54.5)/— ^ n (%) | Minnelide-related AE Fatigue, Any [5, 6]: 2 (18.2)/— ^ n (%) | Minnelide-related AE Nausea, Any [5, 6]: 5 (45.5) n (%) | Minnelide-related AE Nausea, ≥Gr 3 [5, 6]: 2 (18.2) n (%) | Minnelide-related AE Neutropenia, Any [5, 6]: 1 (9.1)/1 (9.1) n (%) | Minnelide-related AE Neutropenia, ≥Gr 3 [5, 6]: 1 (9.1)/1 (9.1) n (%) | Minnelide-related AE Overall, Any [5, 6]: 8 (72.7) n (%) | Minnelide-related AE Vomiting, Any [5, 6]: 1 (9.1)/1 (9.1) n (%) | Minnelide-related AE Vomiting, ≥Gr 3 [5, 6]: 1 (9.1)/1 (9.1) n (%) | TRAE Abdominal pain, Any [5, 6]: 5 (45.5) n (%) | TRAE Abdominal pain, ≥Gr 3 [5, 6]: 2 (18.2) n (%) | TRAE Anemia, Any [5, 6]: 2 (18.2)/2 (18.2) n (%) | TRAE Anemia, ≥Gr 3 [5, 6]: 2 (18.2)/2 (18.2) n (%) | TRAE Annualar scaly plaques, Any [5, 6]: 1 (9.1)/— n (%) | TRAE Anorexia, Any [5, 6]: 8 (72.7)/— n (%) | TRAE Azotemia, Any [5, 6]: 1 (9.1)/— n (%) | TRAE Cancer pain, Any [5, 6]: 3 (27.3) n (%) | TRAE Cancer pain, ≥Gr 3 [5, 6]: 1 (9.1) n (%) | TRAE Cancer progression, Any [5, 6]: 3 (27.3)/3 (27.3) n (%) | TRAE Cancer progression, ≥Gr 3 [5, 6]: 3 (27.3)/3 (27.3) n (%) | TRAE Constipation, Any [5, 6]: 1 (9.1)/— n (%) | TRAE Decreased vision, Any [5, 6]: 1 (9.1)/— n (%) | TRAE Depression, Any [5, 6]: 1 (9.1)/— n (%) | TRAE Dyspepsia, Any [5, 6]: 1 (9.1)/— n (%) | TRAE Dysuria, Any [5, 6]: 1 (9.1)/— n (%) | TRAE Fatigue, Any [5, 6]: 3 (27.3)/— n (%) | TRAE Gastric stenosis, Any [5, 6]: 1 (9.1)/1 (9.1) n (%) | TRAE Gastric stenosis, ≥Gr 3 [5, 6]: 1 (9.1)/1 (9.1) n (%) | TRAE Hypophosphatemi, Any [5, 6]: 1 (9.1)/1 (9.1) n (%) | TRAE Hypophosphatemi, ≥Gr 3 [5, 6]: 1 (9.1)/1 (9.1) n (%) | TRAE Nausea, Any [5, 6]: 6 (54.5) n (%) | TRAE Nausea, ≥Gr 3 [5, 6]: 2 (18.2) n (%) | TRAE Neutropenia, Any [5, 6]: 1 (9.1)/1 (9.1) n (%) | TRAE Neutropenia, ≥Gr 3 [5, 6]: 1 (9.1)/1 (9.1) n (%) | TRAE Overall, Any [5, 6]: 11 (100.0) n (%) | TRAE Overall, ≥Gr 3 [5, 6]: 8 (72.7) n (%) | TRAE Tachycardia, Any [5, 6]: 1 (9.1)/— n (%) | TRAE Urinary tract infection, Any [5, 6]: 1 (9.1)/— n (%) | TRAE Vomiting, Any [5, 6]: 3 (27.3) n (%) | TRAE Vomiting, ≥Gr 3 [5, 6]: 1 (9.1) n (%) | dose-limiting toxicities (DLTs), number ([5]; Regimen A, dose level 3, 1.5 mg, Grade 3 abdominal pain): two and Two | Minnelide-related AE Abdominal pain, Any ([5]; Total Regimens A-C, n = 36): 14 (38.9) n (%) | Minnelide-related AE Abdominal pain, ≥Gr 3 ([5]; Total Regimens A-C, n = 36): 4 (11.1) n (%) | Minnelide-related AE Anorexia, Any ([5]; Total Regimens A-C, n = 36): 15 (41.7)/— n (%) | Minnelide-related AE Constipation, Any ([5]; Total Regimens A-C, n = 36): 1 (2.8)/— n (%) | Minnelide-related AE Fatigue, Any ([5]; Total Regimens A-C, n = 36): 4 (11.1)/— n (%) | Minnelide-related AE General weakness, Any ([5]; Total Regimens A-C, n = 36): 1 (2.8)/— n (%) | Minnelide-related AE Nausea, Any ([5]; Total Regimens A-C, n = 36): 10 (27.8) n (%) | Minnelide-related AE Nausea, ≥Gr 3 ([5]; Total Regimens A-C, n = 36): 2(5.6) n (%)
